Laboratory results taken from ChEMBL document CHEMBL4346705, “(±)-trans-Dihydronarciclasine and (±)-trans-dihydrolycoricidine analogues modified in their ring A: Evaluation of their anticancer activity and a SAR study” (2019).

Assays:
Format in all cases: functional
786-0 = assay: Antiproliferative activity against human 786-0 cells assessed as cell viability at 10^-5 M incubated for 48 hrs by sulforhodamine B assay relative to control; details: 786-0, 48 h, read-out: Activity
CCRF-CEM = assay: Antiproliferative activity against human CCRF-CEM cells assessed as cell viability at 10^-5 M incubated for 48 hrs by sulforhodamine B assay relative to control; details: read-out: Activity
MOLT-4 = assay: Antiproliferative activity against human MOLT4 cells assessed as cell viability at 10^-5 M incubated for 48 hrs by sulforhodamine B assay relative to control; details: MOLT-4, 48 h, read-out: Activity
ACHN = assay: Antiproliferative activity against human ACHN cells assessed as cell viability at 10^-5 M incubated for 48 hrs by sulforhodamine B assay relative to control; details: read-out: Activity
RXF 393 = assay: Antiproliferative activity against human RXF393 cells assessed as cell viability at 10^-5 M incubated for 48 hrs by sulforhodamine B assay relative to control; details: RXF 393, 48 h, read-out: Activity
SK-MEL-2 = assay: Antiproliferative activity against human SK-MEL-2 cells assessed as cell viability at 10^-5 M incubated for 48 hrs by sulforhodamine B assay relative to control; details: SK-MEL-2, 48 h, read-out: Activity
Malme-3M = assay: Antiproliferative activity against human MALME-3M cells assessed as cell viability at 10^-5 M incubated for 48 hrs by sulforhodamine B assay relative to control; details: read-out: Activity
OVCAR-5 = assay: Antiproliferative activity against human OVCAR5 cells assessed as cell viability at 10^-5 M incubated for 48 hrs by sulforhodamine B assay relative to control; details: OVCAR-5, 48 h, read-out: Activity
SF-539 = assay: Antiproliferative activity against human SF539 cells assessed as cell viability at 10^-5 M incubated for 48 hrs by sulforhodamine B assay relative to control; details: SF-539, 48 h, read-out: Activity
HCT-116 = assay: Antiproliferative activity against human HCT116 cells assessed as cell viability at 10^-5 M incubated for 48 hrs by sulforhodamine B assay relative to control; details: HCT-116, 48 h, read-out: Activity
EKVX = assay: Antiproliferative activity against human EKVX cells assessed as cell viability at 10^-5 M incubated for 48 hrs by sulforhodamine B assay relative to control; details: read-out: Activity
TK-10 = assay: Antiproliferative activity against human TK10 cells assessed as cell viability at 10^-5 M incubated for 48 hrs by sulforhodamine B assay relative to control; details: TK-10, 48 h, read-out: Activity
NCI-H322M = assay: Antiproliferative activity against human NCI-H322M cells assessed as cell viability at 10^-5 M incubated for 48 hrs by sulforhodamine B assay relative to control; details: read-out: Activity
UACC-62 = assay: Antiproliferative activity against human UACC62 cells assessed as cell viability at 10^-5 M incubated for 48 hrs by sulforhodamine B assay relative to control; details: UACC-62, 48 h, read-out: Activity
SK-OV-3 = assay: Antiproliferative activity against human SKOV3 cells assessed as cell viability at 10^-5 M incubated for 48 hrs by sulforhodamine B assay relative to control; details: SK-OV-3, 48 h, read-out: Activity
UACC-257 = assay: Antiproliferative activity against human UACC257 cells assessed as cell viability at 10^-5 M incubated for 48 hrs by sulforhodamine B assay relative to control; details: UACC-257, 48 h, read-out: Activity
SNB-19 = assay: Antiproliferative activity against human SNB19 cells assessed as cell viability at 10^-5 M incubated for 48 hrs by sulforhodamine B assay relative to control; details: SNB-19, 48 h, read-out: Activity
SR = assay: Antiproliferative activity against human SR cells assessed as cell viability at 10^-5 M incubated for 48 hrs by sulforhodamine B assay relative to control; details: read-out: Activity
Hs-578T = assay: Antiproliferative activity against human Hs 578T cells assessed as cell viability at 10^-5 M incubated for 48 hrs by sulforhodamine B assay relative to control; details: read-out: Activity
T47D = assay: Antiproliferative activity against human T47D cells assessed as cell viability at 10^-5 M incubated for 48 hrs by sulforhodamine B assay relative to control; details: read-out: Activity
OVCAR-8 = assay: Antiproliferative activity against human OVCAR8 cells assessed as cell viability at 10^-5 M incubated for 48 hrs by sulforhodamine B assay relative to control; details: OVCAR-8, 48 h, read-out: Activity
NCI/ADR-RES = assay: Antiproliferative activity against human NCI-ADR-RES cells assessed as cell viability at 10^-5 M incubated for 48 hrs by sulforhodamine B assay relative to control; details: read-out: Activity
SW-620 = assay: Antiproliferative activity against human SW620 cells assessed as cell viability at 10^-5 M incubated for 48 hrs by sulforhodamine B assay relative to control; details: SW-620, 48 h, read-out: Activity
PC-3 = assay: Antiproliferative activity against human PC3 cells assessed as cell viability at 10^-5 M incubated for 48 hrs by sulforhodamine B assay relative to control; details: PC-3, 48 h, read-out: Activity
SF-295 = assay: Antiproliferative activity against human SF295 cells assessed as cell viability at 10^-5 M incubated for 48 hrs by sulforhodamine B assay relative to control; details: SF-295, 48 h, read-out: Activity
UO-31 = assay: Antiproliferative activity against human UO31 cells assessed as cell viability at 10^-5 M incubated for 48 hrs by sulforhodamine B assay relative to control; details: UO-31, 48 h, read-out: Activity
K562 = assay: Antiproliferative activity against human K562 cells assessed as cell viability at 10^-5 M incubated for 48 hrs by sulforhodamine B assay relative to control; details: K562, 48 h, read-out: Activity
A498 = assay: Antiproliferative activity against human A498 cells assessed as cell viability at 10^-5 M incubated for 48 hrs by sulforhodamine B assay relative to control; details: A498, 48 h, read-out: Activity
NCI-H226 = assay: Antiproliferative activity against human NCI-H226 cells assessed as cell viability at 10^-5 M incubated for 48 hrs by sulforhodamine B assay relative to control; details: NCI-H226, 48 h, read-out: Activity
SN12C = assay: Antiproliferative activity against human SN12C cells assessed as cell viability at 10^-5 M incubated for 48 hrs by sulforhodamine B assay relative to control; details: read-out: Activity
NCI-H23 = assay: Antiproliferative activity against human NCI-H23 cells assessed as cell viability at 10^-5 M incubated for 48 hrs by sulforhodamine B assay relative to control; details: NCI-H23, 48 h, read-out: Activity
NCI-H522 = assay: Antiproliferative activity against human NCI-H522 cells assessed as cell viability at 10^-5 M incubated for 48 hrs by sulforhodamine B assay relative to control; details: NCI-H522, 48 h, read-out: Activity
NCI-H460 = assay: Antiproliferative activity against human NCI-H460 cells assessed as cell viability at 10^-5 M incubated for 48 hrs by sulforhodamine B assay relative to control; details: NCI-H460, 48 h, read-out: Activity

Row | Compound | viability at 10 µM (786-0) [%] | viability at 10 µM (CCRF-CEM) [%] | viability at 10 µM (MOLT-4) [%] | viability at 10 µM (ACHN) [%] | viability at 10 µM (RXF 393) [%] | viability at 10 µM (SK-MEL-2) [%] | viability at 10 µM (Malme-3M) [%] | viability at 10 µM (OVCAR-5) [%] | viability at 10 µM (SF-539) [%] | viability at 10 µM (HCT-116) [%] | viability at 10 µM (EKVX) [%] | viability at 10 µM (TK-10) [%] | viability at 10 µM (NCI-H322M) [%] | viability at 10 µM (UACC-62) [%] | viability at 10 µM (SK-OV-3) [%] | viability at 10 µM (UACC-257) [%] | viability at 10 µM (SNB-19) [%] | viability at 10 µM (SR) [%] | viability at 10 µM (Hs-578T) [%] | viability at 10 µM (T47D) [%] | also measured
1 | CCCOc1cc2c(cc1OCC)C1CC(O)C(O)C(O)C1NC2=O (racemic) | 101 | 107 | 104 | 107 | 109 | 105 | 108 | 105 | 99.2 | 101 | 104 | 99 | 104 | 117 | 109 | 104 | 105 | 116 | 96.9 | 105 | viability at 10 µM (OVCAR-8): 104%; viability at 10 µM (NCI/ADR-RES): 105%; viability at 10 µM (SW-620): 101%; viability at 10 µM (PC-3): 97.1%; viability at 10 µM (SF-295): 102%; viability at 10 µM (UO-31): 88.9%; viability at 10 µM (K562): 105%; viability at 10 µM (A498): 115%; viability at 10 µM (NCI-H226): 99.6%; viability at 10 µM (SN12C): 112%; viability at 10 µM (NCI-H23): 108%; viability at 10 µM (NCI-H522): 96.7%; viability at 10 µM (NCI-H460): 107%
2 | CCOc1cc2c(cc1OCC)C1CC(O)C(O)C(O)C1NC2=O (racemic) | 98.9 | 102 | 96.5 | 101 | 105 | 100 | 102 | 101 | 98 | 96.3 | 102 | 118 | 95.2 | 96.1 | 95.9 | 97.5 | 105 | 91.2 | 99.6 | 90.2 | viability at 10 µM (OVCAR-8): 97.9%; viability at 10 µM (NCI/ADR-RES): 101%; viability at 10 µM (SW-620): 99.4%; viability at 10 µM (PC-3): 92.8%; viability at 10 µM (SF-295): 94.9%; viability at 10 µM (UO-31): 76.4%; viability at 10 µM (K562): 88.4%; viability at 10 µM (A498): 111%; viability at 10 µM (NCI-H226): 97.8%; viability at 10 µM (SN12C): 100%; viability at 10 µM (NCI-H23): 96.1%; viability at 10 µM (NCI-H522): 89.5%; viability at 10 µM (NCI-H460): 111%
3 | CCOc1c(OC)cc2c(c1O)C(=O)NC1C2CC(O)C(O)C1O (racemic) | 102 | 103 | 92.4 | 103 | 109 | 106 | 102 | 98.7 | 97.7 | 104 | 98 | 93.9 | 103 | 93.1 | 98.1 | 100 | 99 | 89.2 | 100 | 92.8 | viability at 10 µM (OVCAR-8): 101%; viability at 10 µM (NCI/ADR-RES): 110%; viability at 10 µM (SW-620): 107%; viability at 10 µM (PC-3): 100%; viability at 10 µM (SF-295): 102%; viability at 10 µM (UO-31): 92.9%; viability at 10 µM (K562): 91.2%; viability at 10 µM (A498): 99.5%; viability at 10 µM (NCI-H226): 99.8%; viability at 10 µM (SN12C): 104%; viability at 10 µM (NCI-H23): 107%; viability at 10 µM (NCI-H522): 92.3%; viability at 10 µM (NCI-H460): 112%
